Reference: US8193218B2, “Aroyl-piperidine derivatives and method of treating disorders induced by substance P” (Novartis AG, priority 2002, dated 2012)

Legend:
[1] = target: T1, binding of H^3-substance P to bovine retina (Bos taurus, UniProt F1MIX5); assay: binding of H^3-substance P to bovine retina, radio receptor assay; conditions: read-out: in vitro values (IC50), inhibition of binding of H^3-substance P to bovine retina
T1 construct: from tissue; host or cells: bovine retina
Method: In addition, the binding of H^3-substance P to bovine retina in the radio receptor assay according to H. Bittiger, Ciba Foundation Symposium 91, 196-199 (1982) is inhibited with IC50 values of from approximately 1 nmol. For example, the following in vitro values of about 10 nM were obtained for the target compounds of Examples 1 and 2.

T1 sequence (F1MIX5 1-407): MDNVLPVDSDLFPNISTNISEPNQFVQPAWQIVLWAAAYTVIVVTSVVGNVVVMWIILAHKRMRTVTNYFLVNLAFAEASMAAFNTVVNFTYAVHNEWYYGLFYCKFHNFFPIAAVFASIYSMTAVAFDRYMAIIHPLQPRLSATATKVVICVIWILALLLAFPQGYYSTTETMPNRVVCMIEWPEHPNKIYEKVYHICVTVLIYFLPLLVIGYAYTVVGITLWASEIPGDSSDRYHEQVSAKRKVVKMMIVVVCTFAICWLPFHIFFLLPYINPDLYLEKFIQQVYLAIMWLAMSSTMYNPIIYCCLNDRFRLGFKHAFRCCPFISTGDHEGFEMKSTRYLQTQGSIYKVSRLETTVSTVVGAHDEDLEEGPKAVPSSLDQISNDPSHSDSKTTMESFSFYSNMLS

In the case of `O=C(N[C@H]1CCN(C(=O)c2cc(C(F)(F)F)cc(C(F)(F)F)c2)[C@H](Cc2ccc(Cl)cc2)C1)c1cc[n+]([O-])c2ccccc12` [Example 1, 1-Oxy-quinoline-4-carboxylic acid [(2R,4S)-1-(3,5-bis-trifluoromethyl-benzoyl)-2-(4-chloro-benzyl)-piperidin-4-yl]-amide], the melting point is reported as 223 to 225 °C and the IC50 [1] is reported as ~10 nM.

With `O=C(N[C@H]1CCN(C(=O)c2cc(C(F)(F)F)cc(C(F)(F)F)c2)[C@H](Cc2ccc(Cl)cc2)C1)c1cc(O)nc2ccccc12` [Example 2, 2-Hydroxy-quinoline-4-carboxylic acid [(2R,4S)-1-(3,5-bis-trifluoromethyl-benzoyl)-2-(4-chloro-benzyl)-piperidin-4-yl]-amide] the melting point was 222 to 224 °C and the IC50 [1] was ~10 nM.
